Legend:
[1] = target: phosphorylated FGFR3 (SEQ ID NO: 5, amino acids 449 to 759) (Homo sapiens (Human), UniProt P22607); assay: FGFR enzyme binding assay (HTRF tracer displacement), FGFR3; conditions: 5 nM phosphorylated FGFR3, average of multiple determinations if made
Summary of the method: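 Compounds were tested for displacement of a tracer from human FGFR kinase in a time-resolved FRET binding format. After 60 minutes at 22° C, signal was read at two wavelengths and converted to percent of control, normalised between untreated wells and 1 μM reference inhibitor.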

[2] = target: recombinant human FGFR3 (amino acids R397-T806) (Homo sapiens (Human), UniProt P22607); assay: FGFR3 enzyme activity assay (LanthaScreen TR-FRET); format: biochemical; conditions: 25 μM ATP, 10 min incubation at 22° C., average of multiple determinations if made, read-out: FGFR3 Enz FRET IC50
Sequence of recombinant human FGFR3 (amino acids R397-T806) (P22607 397-806): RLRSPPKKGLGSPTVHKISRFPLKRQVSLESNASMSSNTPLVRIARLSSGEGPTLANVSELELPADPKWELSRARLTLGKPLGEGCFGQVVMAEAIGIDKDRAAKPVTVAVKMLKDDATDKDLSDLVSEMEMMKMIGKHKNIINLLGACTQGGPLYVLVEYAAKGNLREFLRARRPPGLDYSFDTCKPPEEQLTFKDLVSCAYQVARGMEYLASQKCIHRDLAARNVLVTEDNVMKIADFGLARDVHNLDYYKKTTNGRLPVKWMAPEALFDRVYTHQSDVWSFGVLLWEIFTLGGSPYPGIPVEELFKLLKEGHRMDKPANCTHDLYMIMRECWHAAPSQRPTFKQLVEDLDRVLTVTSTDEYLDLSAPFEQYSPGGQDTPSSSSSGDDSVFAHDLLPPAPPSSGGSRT
Summary of the method: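 GST-HIS6-tagged human FGFR3 (R397-T806) was reacted with 100 nM Alexa Fluor 647-Poly-GT substrate and 25 μM ATP plus compound in HEPES/MgCl2/Triton buffer, pH 7.5, 2% DMSO, for 10 min at 22 °C.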

[3] = target: FGFR1 (SEQ ID NO: 1, amino acids 458-765) (Homo sapiens (Human), UniProt P11362); assay: LC/MS FGFR1 kobs assay (covalent protein modification); format: binding; conditions: 500 nM FGFR1, 3 μM compound
Sequence of FGFR1 (SEQ ID NO: 1, amino acids 458-765) (P11362 458-765): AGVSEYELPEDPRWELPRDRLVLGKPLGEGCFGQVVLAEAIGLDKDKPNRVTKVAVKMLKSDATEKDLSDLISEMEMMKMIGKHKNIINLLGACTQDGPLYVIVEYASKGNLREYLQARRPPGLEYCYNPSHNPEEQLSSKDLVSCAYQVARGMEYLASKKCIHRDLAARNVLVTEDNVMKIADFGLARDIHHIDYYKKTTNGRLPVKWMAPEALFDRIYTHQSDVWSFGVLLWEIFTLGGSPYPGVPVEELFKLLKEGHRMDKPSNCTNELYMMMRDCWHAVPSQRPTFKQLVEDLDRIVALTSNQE
Summary of the method: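 Covalent labeling of FGFR1 kinase domain (aa 458-765) tracked over time by intact-protein LC/MS after formic acid quench. kobs derived by fitting DMSO-normalized percent unmodified FGFR1 to an exponential decay model.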

[4] = target: HEK-293 cells transfected with dox-inducible human wild type FGFR3 (Homo sapiens (Human), UniProt P22607); assay: FGFR3 pERK cell assay; format: cell-based; conditions: HEK-293 dox-inducible FGFR3, 1 hour compound, 100 ng/ml FGF-acidic; maximum concentration 5 μM
Sequence of HEK-293 cells transfected with dox-inducible human wild type FGFR3 (P22607 23-806): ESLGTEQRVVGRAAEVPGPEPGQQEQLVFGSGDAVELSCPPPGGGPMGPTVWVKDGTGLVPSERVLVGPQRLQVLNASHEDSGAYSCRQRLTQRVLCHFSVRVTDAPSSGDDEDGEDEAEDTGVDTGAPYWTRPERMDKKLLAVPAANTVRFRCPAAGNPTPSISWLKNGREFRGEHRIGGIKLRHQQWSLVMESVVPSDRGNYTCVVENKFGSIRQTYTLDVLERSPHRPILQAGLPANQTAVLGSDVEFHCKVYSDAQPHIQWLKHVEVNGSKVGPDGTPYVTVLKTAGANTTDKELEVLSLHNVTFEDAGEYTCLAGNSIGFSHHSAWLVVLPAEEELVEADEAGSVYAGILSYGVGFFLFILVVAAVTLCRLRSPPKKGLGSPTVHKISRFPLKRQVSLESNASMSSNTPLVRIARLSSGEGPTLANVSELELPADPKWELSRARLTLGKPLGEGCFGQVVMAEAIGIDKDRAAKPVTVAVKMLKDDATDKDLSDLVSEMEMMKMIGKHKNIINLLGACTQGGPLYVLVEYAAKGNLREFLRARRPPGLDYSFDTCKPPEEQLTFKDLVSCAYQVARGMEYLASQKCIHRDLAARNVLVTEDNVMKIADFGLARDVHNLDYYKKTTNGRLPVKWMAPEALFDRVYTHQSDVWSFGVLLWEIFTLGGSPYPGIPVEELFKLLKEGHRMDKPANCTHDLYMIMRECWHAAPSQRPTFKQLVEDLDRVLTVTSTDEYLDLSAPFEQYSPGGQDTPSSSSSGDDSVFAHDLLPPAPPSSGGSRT
Summary of the method: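 Doxycycline-induced cells preincubated 1 h at 37 °C with compound (1:3 dilutions, top 5 μM final), then stimulated 5 min with 100 ng/ml FGF-acidic. Lysate phospho-ERK1/2 measured by MSD sandwich assay; IC50 at 50 POC from 4-parameter fit, normalised to no-compound and control-compound wells.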

[5] = target: HEK-293 cells transfected with dox-inducible human wild type FGFR2 (Homo sapiens (Human), UniProt P21802); assay: FGFR2 pFGFR cell assay (ELISA); format: cell-based; conditions: HEK-293 dox-inducible FGFR2, 1 hour compound, 30 ng/ml FGF-acidic
Sequence of HEK-293 cells transfected with dox-inducible human wild type FGFR2 (P21802 22-821): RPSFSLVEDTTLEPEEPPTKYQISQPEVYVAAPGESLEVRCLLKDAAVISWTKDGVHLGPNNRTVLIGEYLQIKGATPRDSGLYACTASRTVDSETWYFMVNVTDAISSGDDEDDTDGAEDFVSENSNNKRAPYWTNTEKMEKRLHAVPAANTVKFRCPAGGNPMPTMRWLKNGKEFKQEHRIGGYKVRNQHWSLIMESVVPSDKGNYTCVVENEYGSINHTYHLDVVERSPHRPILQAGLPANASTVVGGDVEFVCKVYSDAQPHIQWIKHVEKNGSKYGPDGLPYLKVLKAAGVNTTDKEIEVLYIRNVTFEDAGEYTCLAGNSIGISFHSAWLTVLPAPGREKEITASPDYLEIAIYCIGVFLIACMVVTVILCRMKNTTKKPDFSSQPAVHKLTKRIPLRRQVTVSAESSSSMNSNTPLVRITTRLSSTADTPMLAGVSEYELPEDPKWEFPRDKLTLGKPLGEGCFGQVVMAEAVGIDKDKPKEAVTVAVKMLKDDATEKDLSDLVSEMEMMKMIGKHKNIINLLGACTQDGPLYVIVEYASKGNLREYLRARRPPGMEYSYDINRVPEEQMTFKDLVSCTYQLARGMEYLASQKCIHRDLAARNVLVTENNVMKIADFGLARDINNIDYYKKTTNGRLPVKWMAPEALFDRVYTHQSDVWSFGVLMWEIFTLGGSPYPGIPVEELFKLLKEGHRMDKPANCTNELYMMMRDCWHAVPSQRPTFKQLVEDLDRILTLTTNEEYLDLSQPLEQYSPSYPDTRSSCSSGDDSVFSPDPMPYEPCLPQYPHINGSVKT
Procedure: FGFR2 pFGFR Cell Assay: • HEK-293 cells transfected with dox-inducible human wild type FGFR2 (SEQ ID NO: 3) were plated in a collagen or poly-D-lysine coated 96 well flat bottom plates at 4×10^5 cells/well in complete DMEM medium containing 10% FBS and 1 μg/ml doxycycline and allowed to attach for 24 h at 37° C., 5% CO2. Cells were treated with compound using 1:3 serial dilutions with a maximum final concentration of 5 μM. Compound was incubated on cells for 1 hour at 37° C., 5% CO2. Cells were then stimulated with a final concentration of 30 ng/ml human FGF-acidic (R&D Systems Cat number 232-FA/CF) for 5 minutes at 37° C., 5% CO2. Medium was removed and cells were lysed with lysis buffer containing phosphatase and protease inhibitors. Phospho FGFR2 was measured by ELISA (R&D Systems cat. no. DYC684). The ELISA captures total FGFR2 and detects total phospho tyrosine. Optical density was measured for each well using a Versamax reader at a wavelength of 450 nm. 100 POC was determined using no test compounds and 0 POC was determined using a control compound. The POC values were fit to a 4-parameter logistic curve as a function of the concentration of the compound, and the IC50 value is the point where the curve crosses 50 POC.

Sequence of phosphorylated FGFR3 (SEQ ID NO: 5, amino acids 449 to 759) (P22607 449-759): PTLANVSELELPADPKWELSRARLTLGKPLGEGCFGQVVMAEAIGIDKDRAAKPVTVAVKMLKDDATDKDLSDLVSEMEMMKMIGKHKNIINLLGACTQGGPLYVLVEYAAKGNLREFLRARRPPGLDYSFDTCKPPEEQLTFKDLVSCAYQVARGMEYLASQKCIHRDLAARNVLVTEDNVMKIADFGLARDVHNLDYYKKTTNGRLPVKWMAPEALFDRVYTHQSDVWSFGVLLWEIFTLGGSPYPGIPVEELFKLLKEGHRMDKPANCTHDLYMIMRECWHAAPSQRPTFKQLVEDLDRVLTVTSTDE

Compound	IC50 [1]	IC50 [2]	FGFR1 Enz kobs [3]	IC50 [4]	IC50 [5]
C=CS(=O)(=O)N1CCC(C(=O)N2CCC(n3cc(-c4cc(OC)c5c(C#N)cnn5c4)cn3)CC2)CC1 [Example 186, 4-methoxy-6-(1-(1-(1-(vinylsulfonyl)piperi-dine-4-carbonyl)piperidin-4-yl)-1H-pyrazol-4-yl)pyrazolo[1,5-a]pyridine-3-carbonitrile]	2 nM	5 nM	0.01483 min⁻¹	6 nM	42 nM
C=CC(=O)N1CC(C(=O)N2C[C@@H]3C[C@H]2CN3c2ccc(-c3cc(OC)c4c(C#N)cnn4c3)cn2)C1 [Example 106, 6-(6-((1S,4S)-5-(1-acryloylazetidine-3-carbonyl)-2,5-diazabicyclo[2.2.1]heptan-2-yl)pyridin-3-yl)-4-methoxypyrazolo[1,5-a]pyridine-3-carbonitrile]	9 nM	25 nM	0.00246 min⁻¹	244 nM	1200 nM
C=CC(=O)N1CC(C(=O)N2CCC3(CC2)CN(c2ccc(-c4cc(OC)c5c(C#N)cnn5c4)cn2)C3)C1 [Example 102, 6-(6-(7-(1-acryloylazetidine-3-carbonyl)-2,7-diazaspiro[3.5]nonan-2-yl)pyridin-3-yl)-4-methoxypyrazolo[1,5-a]pyridine-3-carbonitrile]	6 nM	22 nM	0.00313 min⁻¹	44 nM	129 nM

The remaining lines, values ahead:

IC50 [1]	IC50 [2]	FGFR1 Enz kobs [3]	IC50 [4]	IC50 [5]	Compound
3 nM	8 nM	0.00713 min⁻¹	188 nM	1180 nM	COc1cc(-c2nnn(C3CCN(C(=O)C4(F)CN(C(=O)/C=C/CN(C)C)C4)CC3)c2C)cn2ncc(C#N)c12 [Example 164, (E)-6-(1-(1-(1-(4-(dimethylamino)but-2-enoyl)-3-fluoroazetidine-3-carbonyl)piperidin-4-yl)-5-methyl-1H-1,2,3-triazol-4-yl)-4-methoxypyrazolo [1,5-a]pyridine-3-carbonitrile]
18 nM	24 nM	0.0008 min⁻¹	91 nM	244 nM	CC#CC(=O)N1CC(F)(C(=O)N2CCC(n3ncc(-c4cc(OC)c5c(C#N)cnn5c4)c3C)CC2)C1 [Example 156, 6-(1-(1-(1-(but-2-ynoyl)-3-fluoroazetidine-3-carbonyl)piperidin-4-yl)-5-methyl-1H-pyrazol-4-yl)-4-methoxypyrazolo [1,5-a]pyridine-3-carbonitrile]
5 nM	20 nM	0.00744 min⁻¹	133 nM	537 nM	COc1cc(-c2c(C)nn(C3CCN(C(=O)C4(F)CN(C(=O)/C=C/CN(C)C)C4)CC3)c2C)cn2ncc(C#N)c12 [Example 161, (E)-6-(1-(1-(1-(4-(dimethylamino)but-2-enoyl)-3-fluoroazetidine-3-carbonyl)piperidin-4-yl)-3,5-dimethyl-1H-pyrazol-4-yl)-4-methoxypyrazolo [1,5-a]pyridine-3-carbonitrile]
2 nM	5 nM	0.00975 min⁻¹	25 nM	188 nM	COc1cc(-c2cnn(C3CCN(C(=O)C4(F)CN(C(=O)/C=C/CN(C)C)C4)CC3)c2C)cn2ncc(C#N)c12 [Example 153, (E)-6-(1-(1-(1-(4-(dimethylamino)but-2-enoyl)-3-fluoroazetidine-3-carbonyl)piperidin-4-yl)-5-methyl-1H-pyrazol-4-yl)-4-methoxypyrazolo [1,5-a]pyridine-3-carbonitrile]

From patent publication US12180207B2 (ARRAY BIOPHARMA INC., priority 2018, dated 2024)
